Several values for one entry are separate records, joined by “and”; a condition that tells them apart may be missing. Identical values can stand only once.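 Cells were grown in 96-well plates and exposed to each compound for 48 hours at five concentrations; endpoints were interpolated linearly between bracketing concentrations, or set to the highest concentration if not reached. GI50 = concentration required for 50% inhibition of growth. TGI: concentration producing complete growth inhibition.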
What was measured:
Experiment in all cases: NCI-60 cell line screen, 48 h
DU-145 prostate = tested on: DU-145 prostate
BT-549 breast = tested on: BT-549 breast
MDA-MB-435 = tested on: MDA-MB-435
MDA-MB-231 breast = tested on: MDA-MB-231 breast
MCF7 breast = tested on: MCF7 breast
KM20L2 colon = tested on: KM20L2 colon
DMS 114 small cell lung = tested on: DMS 114 small cell lung

SMILES	TGI (DU-145 prostate)	GI50 (BT-549 breast)	TGI (BT-549 breast)	TGI (MDA-MB-435)	TGI (MDA-MB-231 breast)	TGI (MCF7 breast)	GI50 (DU-145 prostate)	GI50 (MDA-MB-435)	GI50 (MDA-MB-231 breast)	GI50 (MCF7 breast)	GI50 (KM20L2 colon)	TGI (KM20L2 colon)	TGI (DMS 114 small cell lung)
O=[N+]([O-])c1ccc(N=Nc2c(O)ccc3ccccc23)cc1	> 100 µM	30.3 µM and > 100 µM	96.1 µM and > 100 µM	> 100 µM	> 100 µM	> 100 µM							
COc1ccc2c(c1)CCc1[nH]c3ccccc3c1CCCC2	> 10 µM		> 10 µM	> 10 µM	> 10 µM	> 10 µM							
Cc1cc(-c2nnc(N)nc2-c2ccc(F)cc2)cc(Cl)n1	> 100 µM	58.1 µM	> 100 µM	> 100 µM	> 100 µM	> 100 µM	> 100 µM	> 100 µM	70.2 µM	> 100 µM			
O=C([O][Hg][CH2]C1COCC([CH2][Hg][O]C(=O)c2ccccc2)O1)c1ccccc1 (configuration not stated)	28.7 µM	17.3 µM	31.2 µM	30.9 µM	45.6 µM	14.2 µM	15.2 µM	14.2 µM	19.4 µM	1.25 µM			
Cc1occc1C(=S)Nc1ccc(Cl)c(/C=N/OC(C)C)c1	> 54.2 µM		36.5 µM	31 µM	32.6 µM	> 51.6 µM							
CC(C)CNc1nc(-c2ccccc2)nc2ccccc12	28.2 µM			37.9 µM		44.4 µM	14.8 µM	18.5 µM		18.6 µM			
O=C([CH-]C(=O)c1ccccc1)c1ccccc1.O=C([CH-]C(=O)c1ccccc1)c1ccccc1.O=C([CH-]C(=O)c1ccccc1)c1ccccc1.[OH3+].[Y+3]											5.92 µM		
COc1ccc(C2=C(c3ccc(OC)c(OC)c3)C(=O)OC2)cc1	> 100 µM	3.55 µM	> 100 µM			> 48.8 µM	0.185 µM	< 0.0463 µM	0.682 µM				
CCCN1CCN(c2ccc3nc(-c4ccc5nc(-c6cc(OC)ccc6OC)[nH]c5c4)[nH]c3c2)CC1	3.4 µM	15.7 µM	36.1 µM	3.24 µM	3.27 µM	3.82 µM	1.89 µM	1.79 µM	1.74 µM	1.8 µM			
CC1=C2C[C@H]3[C@@H](CC=C4C[C@@H](O)CC[C@@]43C)[C@@H]2CC[C@]12O[C@@H]1C[C@H](C)CN[C@H]1[C@H]2C	50 µM and 61.6 µM	31 µM and 52.1 µM	50 µM and > 100 µM	> 50 µM and 42.1 µM	42.6 µM and 49.7 µM	50 µM and 55.9 µM	27.9 µM and 25.8 µM	> 50 µM and 17.2 µM	17.8 µM and 23.7 µM	29 µM and 23.7 µM			
Cc1cc(C)nc(NS(=O)(=O)c2ccc(Nc3c4ccc(Cl)cc4nc4c(C(=O)Nc5ccc(S(=O)(=O)N=C(N)N)cc5)cccc34)cc2)n1												> 100 µM	> 100 µM
c1ccc2c(c1)-c1ccccc1C2N1CC2CCC(CC2)C1	92 µM		47.9 µM	73.4 µM	37.4 µM	32.7 µM							
CN(C)C1CCN(C(=O)c2ccc(NC(=O)Nc3ccc(-c4nc(N5CCOCC5)nc(N5CCOCC5)n4)cc3)cc2)CC1	14.6 µM and 2.5 µM and 7.51 µM	0.018 µM and 0.0199 µM and 0.0434 µM	0.239 µM and 0.206 µM and 0.635 µM	0.133 µM and 0.284 µM and 0.324 µM	1.71 µM and 2.5 µM and 0.286 µM	2.5 µM and > 10 µM	0.0157 µM and 0.0156 µM and 0.0258 µM	0.0148 µM and 0.013 µM and 0.0221 µM	< 0.0115 µM and 0.0128 µM and 0.0168 µM	0.00665 µM and 0.00604 µM			
CC[Si](CC)(CC)OC[C@]1([C@@H]2COC(C)(C)O2)CC=CC(=O)O1	> 100 µM	20.2 µM	71.2 µM	> 100 µM	> 100 µM	> 100 µM	82.9 µM	36.4 µM	51.1 µM	43.6 µM			
Cc1cc(N2CCN(c3ccnc4cc(Cl)ccc34)CC2)nc(NC2CCCCC2)n1	11.2 µM	1.66 µM	3.28 µM	2.96 µM	4.09 µM	3.47 µM	3.51 µM	1.49 µM	2 µM	1.57 µM			
O=C(Nc1ccc(F)cc1F)c1cc(Br)ccc1O	> 100 µM	1.99 µM	5.51 µM	11.9 µM	7.95 µM	> 100 µM	3.85 µM	2.82 µM	2.26 µM	2.56 µM			
O=S(=O)(c1ccc(N=C2NN=C(c3c[nH]c4ccccc34)CS2)cc1)N1CCOCC1	> 100 µM	2.86 µM	11.3 µM	> 100 µM	> 100 µM	> 100 µM	> 100 µM	8.85 µM	45.3 µM	4.31 µM			
COc1ccc(-c2nc3ncccn3c2/C=C/C(=O)c2cc(OC)c(OC)c(OC)c2)cc1	9.48 µM	1.45 µM	5.92 µM	10.6 µM	17.2 µM	3.32 µM	2.55 µM	2.28 µM	2.73 µM	1.14 µM			
COc1cc2c(cc1OCCCCCCN1CCN(c3ncnc4ccccc34)CC1)N=CC1CCCN1C2=O (configuration not stated)	0.548 µM	0.0422 µM	0.227 µM	0.252 µM	0.394 µM	0.597 µM	0.12 µM	0.0905 µM	0.0425 µM	< 0.0222 µM			
CCOc1ccc(Nc2nc(-c3ccc4c(c3)NC(=O)CO4)cs2)cc1	> 100 µM	2.56 µM	20.7 µM	11.3 µM	> 100 µM	23.3 µM	30.8 µM	2.95 µM	21.1 µM	3.18 µM			
COc1ccc2c(CN3CCC[C@H]3C(=O)O)cc3cc4c(cc3c2c1)OCO4	> 100 µM	15.7 µM	43.3 µM	30.4 µM	> 100 µM	62.3 µM	19.7 µM	14.7 µM	23.5 µM	13.5 µM			
CC1(C)CCC[C@@]2(C)C1CC[C@H]1CC(O)C3(C)CCC12C3 (some centres not stated)												33 µM	31.2 µM
COc1cc2cc(C(=O)Nc3cc(N)c4ccccc4c3CCCl)[nH]c2c(OC)c1OC	0.339 µM	0.121 µM	0.804 µM	0.159 µM		0.374 µM	0.00895 µM	0.0483 µM		0.00869 µM			
Nc1cc(-c2cccc(OC(F)(F)F)c2)nc2ccc(N3CCCC3)cc12	13.2 µM and > 100 µM and > 57.8 µM	0.208 µM and 0.182 µM and 0.1 µM	> 100 µM	0.0455 µM and 0.0346 µM and 0.034 µM	7.26 µM and > 38.6 µM and 56.9 µM	17.2 µM and > 100 µM	0.0458 µM and 0.0446 µM and 0.0377 µM	< 0.0105 µM	0.0385 µM and 0.0353 µM and 0.0356 µM	0.037 µM and 0.036 µM and 0.0354 µM			
